{
  "source": "patent US10603382B2",
  "about": "“Ophthalmic composition” (Johnson & Johnson Consumer Inc., priority 2014, dated 2020)",
  "origin": "cited, not measured here",
  "data": [
    {"details": "Merck Index, Twelfth Edition", "units": {"Solubility (g/100 ml water at 25° C.)": "g/100 ml"}, "values": [
      {"smiles": "O=C(O)/C=C/C(=O)O", "note": "[Fumaric acid]", "Solubility (g/100 ml water at 25° C.)": 0.63},
      {"smiles": "O=C(O)CCCC(=O)O", "note": "[Glutaric acid]", "Solubility (g/100 ml water at 25° C.)": 63.9},
      {"smiles": "O=C(O)/C=C\\C(=O)O", "note": "[Maleic acid]", "Solubility (g/100 ml water at 25° C.)": 78}
    ]}
  ]
}
